Experimental data reported in patent US9241954B2, “Lipopolysaccharide of ochrobactrum intermedium and their use as immunostimulant of mammalians” (LABORATORIOS OVEJERO, S.A., priority 2009, dated 2016).

Key:
[1] = test system: CD8 and CD4 T-cells (spleen cells)
severe sepsis patients = settings: cited from earlier work

Compound | toxicity for CD8 and CD4 T-cells / spleen cells [1] | proinflammatory cytokine levels (severe sepsis patients; human, in vivo) | mortality (severe sepsis patients; severe sepsis patients (TAK-242: subgroup with high IL-6 levels))
Lipopolysaccharide from Ochrobactrum intermedium strain LMG3306 [IM] | no toxic at all | – | –
CCOC(=O)C1=CCCC[C@H]1S(=O)(=O)Nc1ccc(F)cc1Cl [TAK-242] | – | decrease proinflammatory cytokine levels | decrease mortality
